The values that follow come from ChEMBL document CHEMBL3608278 (J Med Chem, 2015).

For experiment [1], the target named is T1, Potassium voltage-gated channel subfamily A member 3 (Homo sapiens, UniProt P22001). The format is cell-based, CHO-K1.
Experiment [2] deals with T1, Potassium voltage-gated channel subfamily A member 3. Kind of experiment: cell-based. Further details: species or system Blood.
The target is the same in experiment [3]. Also on record: species or system Blood.

Some results are limits rather than exact numbers.

T1 sequence (P22001 whole entry): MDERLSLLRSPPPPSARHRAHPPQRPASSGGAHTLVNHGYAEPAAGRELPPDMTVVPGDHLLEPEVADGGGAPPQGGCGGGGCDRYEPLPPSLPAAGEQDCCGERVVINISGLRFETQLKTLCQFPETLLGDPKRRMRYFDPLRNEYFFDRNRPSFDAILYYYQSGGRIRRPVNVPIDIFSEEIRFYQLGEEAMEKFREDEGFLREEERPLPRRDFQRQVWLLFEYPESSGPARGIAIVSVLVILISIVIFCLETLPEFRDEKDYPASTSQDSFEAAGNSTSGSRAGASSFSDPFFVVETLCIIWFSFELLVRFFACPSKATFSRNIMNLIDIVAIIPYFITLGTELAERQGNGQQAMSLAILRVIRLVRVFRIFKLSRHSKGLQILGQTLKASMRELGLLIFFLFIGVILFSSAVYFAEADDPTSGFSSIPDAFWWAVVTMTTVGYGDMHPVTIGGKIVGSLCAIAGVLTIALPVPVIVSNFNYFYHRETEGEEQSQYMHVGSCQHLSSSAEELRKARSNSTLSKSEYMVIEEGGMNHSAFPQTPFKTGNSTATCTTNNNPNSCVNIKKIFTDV

As usually defined, the IC50 is the midpoint of a concentration-inhibition curve. Low readings indicate greater potency in that assay, high ones weaker potency in that assay. With `CC[C@H](C)[C@@H]1NC(=O)[C@@H](NC(=O)[C@H](CCCCN)NC(=O)[C@@H](N)CCCNC(=N)N)CSSC[C@@H](C(=O)O)NC(=O)[C@H]([C@@H](C)O)NC(=O)CNC(=O)[C@@H]2CSSC[C@@H]3NC(=O)[C@H](CCC(N)=O)NC(=O)[C@H](Cc4ccccc4)NC(=O)[C@H](C)NC(=O)[C@H]([C@@H](C)O)NC(=O)[C@H](CSSC[C@H](NC(=O)[C@H](Cc4ccccc4)NC(=O)[C@H](CO)NC(=O)[C@H](CC(C)C)NC(=O)[C@H](CCCNC(=N)N)NC(=O)[C@H](Cc4ccc(O)cc4)NC(=O)[C@H](CCCCN)NC(=O)[C@H](CCSC)NC(=O)[C@H](CO)NC(=O)[C@H](Cc4cnc[nH]4)NC(=O)[C@H](CCCCN)NC3=O)C(=O)N[C@@H](CCCNC(=N)N)C(=O)N[C@@H](CCCCN)C(=O)N[C@@H]([C@@H](C)O)C(=O)N2)NC(=O)[C@H](CCCNC(=N)N)NC(=O)[C@H](CO)NC(=O)[C@H](CCCCN)NC(=O)[C@@H]2CCCN2C(=O)[C@H]([C@@H](C)CC)NC(=O)[C@H]([C@@H](C)O)NC(=O)[C@H](CC(=O)O)NC1=O`, the IC50 came to 0.146 nM in experiment [1], 0.099 nM in experiment [2] and 0.094 nM in experiment [3].

For `CC[C@H](C)[C@@H]1NC(=O)[C@@H](NC(=O)[C@H](CO)NC(=O)[C@@H](N)CCCNC(=N)N)CSSC[C@@H](C(=O)O)NC(=O)[C@H]([C@@H](C)O)NC(=O)CNC(=O)[C@@H]2CSSC[C@@H]3NC(=O)[C@H](CCC(N)=O)NC(=O)[C@H](Cc4ccccc4)NC(=O)[C@H](C)NC(=O)[C@H]([C@@H](C)O)NC(=O)[C@H](CSSC[C@H](NC(=O)[C@H](CCCNC(=N)N)NC(=O)[C@H](CO)NC(=O)[C@H](CC(C)C)NC(=O)[C@H](CCCNC(=N)N)NC(=O)[C@H](Cc4ccc(O)cc4)NC(=O)[C@H](CCCCN)NC(=O)[C@H](CCSC)NC(=O)[C@H](CO)NC(=O)[C@H](Cc4cnc[nH]4)NC(=O)[C@H](CCCCN)NC3=O)C(=O)N[C@@H](CCCNC(=N)N)C(=O)N[C@@H](CCCCN)C(=O)N[C@@H]([C@@H](C)O)C(=O)N2)NC(=O)[C@H](CCCNC(=N)N)NC(=O)[C@H](CO)NC(=O)[C@H](CCCCN)NC(=O)[C@@H]2CCCN2C(=O)[C@H]([C@@H](C)CC)NC(=O)[C@H]([C@@H](C)O)NC(=O)[C@H](CC(=O)O)NC1=O`, the IC50 is more than 3.33 nM in experiment [1], 13 nM in experiment [2] and 59.7 nM in experiment [3].

With `CC[C@H](C)[C@@H]1NC(=O)[C@@H](NC(=O)[C@H](CO)NC(=O)[C@@H](N)CCCNC(=N)N)CSSC[C@@H](C(=O)O)NC(=O)[C@H]([C@@H](C)O)NC(=O)CNC(=O)[C@@H]2CSSC[C@@H]3NC(=O)[C@H](CCC(N)=O)NC(=O)[C@H](Cc4ccccc4)NC(=O)[C@H](C)NC(=O)[C@H]([C@@H](C)O)NC(=O)[C@H](CSSC[C@H](NC(=O)[C@H](Cc4ccccc4)NC(=O)[C@H](CO)NC(=O)[C@H](CC(C)C)NC(=O)[C@H](CCCNC(=N)N)NC(=O)[C@H](Cc4ccc(O)cc4)NC(=O)[C@H](CCCCN)NC(=O)[C@H](CCSC)NC(=O)[C@H](CO)NC(=O)[C@H](Cc4c[nH]cn4)NC(=O)[C@H](CCCCN)NC3=O)C(=O)N[C@@H](CCCNC(=N)N)C(=O)N[C@@H](CCCCN)C(=O)N[C@@H](CCCNC(=N)N)C(=O)N2)NC(=O)[C@H](CCCNC(=N)N)NC(=O)[C@H](CO)NC(=O)[C@H](CCCCN)NC(=O)[C@@H]2CCCN2C(=O)[C@H]([C@@H](C)CC)NC(=O)[C@H]([C@@H](C)O)NC(=O)[C@H](CC(=O)O)NC1=O`, the IC50 is more than 3.33 nM in experiment [1], 11.1 nM in experiment [2] and 39 nM in experiment [3].

For the molecule `CC[C@H](C)[C@@H]1NC(=O)[C@@H](NC(=O)[C@H](CO)NC(=O)[C@@H](N)CCCNC(=N)N)CSSC[C@@H](C(=O)O)NC(=O)[C@H]([C@@H](C)O)NC(=O)[C@H](CCCNC(=N)N)NC(=O)[C@@H]2CSSC[C@@H]3NC(=O)[C@H](CCC(N)=O)NC(=O)[C@H](Cc4ccccc4)NC(=O)[C@H](C)NC(=O)[C@H]([C@@H](C)O)NC(=O)[C@H](CSSC[C@H](NC(=O)[C@H](Cc4ccccc4)NC(=O)[C@H](CO)NC(=O)[C@H](CC(C)C)NC(=O)[C@H](CCCNC(=N)N)NC(=O)[C@H](Cc4ccc(O)cc4)NC(=O)[C@H](CCCCN)NC(=O)[C@H](CCSC)NC(=O)[C@H](CO)NC(=O)[C@H](Cc4cnc[nH]4)NC(=O)[C@H](CCCCN)NC3=O)C(=O)N[C@@H](CCCNC(=N)N)C(=O)N[C@@H](CCCCN)C(=O)N[C@@H]([C@@H](C)O)C(=O)N2)NC(=O)[C@H](CCCNC(=N)N)NC(=O)[C@H](CO)NC(=O)[C@H](CCCCN)NC(=O)[C@@H]2CCCN2C(=O)[C@H]([C@@H](C)CC)NC(=O)[C@H]([C@@H](C)O)NC(=O)[C@H](CC(=O)O)NC1=O`, the IC50 in experiment [1] came out at 0.221 nM; in experiment [2], 0.089 nM; in experiment [3], 0.223 nM.

With `CC[C@H](C)[C@@H]1NC(=O)[C@@H](NC(=O)[C@H](CO)NC(=O)[C@@H](N)CCCNC(=N)N)CSSC[C@@H](C(=O)O)NC(=O)[C@H](CCCNC(=N)N)NC(=O)CNC(=O)[C@@H]2CSSC[C@@H]3NC(=O)[C@H](CCC(N)=O)NC(=O)[C@H](Cc4ccccc4)NC(=O)[C@H](C)NC(=O)[C@H]([C@@H](C)O)NC(=O)[C@H](CSSC[C@H](NC(=O)[C@H](Cc4ccccc4)NC(=O)[C@H](CO)NC(=O)[C@H](CC(C)C)NC(=O)[C@H](CCCNC(=N)N)NC(=O)[C@H](Cc4ccc(O)cc4)NC(=O)[C@H](CCCCN)NC(=O)[C@H](CCSC)NC(=O)[C@H](CO)NC(=O)[C@H](Cc4cnc[nH]4)NC(=O)[C@H](CCCCN)NC3=O)C(=O)N[C@@H](CCCNC(=N)N)C(=O)N[C@@H](CCCCN)C(=O)N[C@@H]([C@@H](C)O)C(=O)N2)NC(=O)[C@H](CCCNC(=N)N)NC(=O)[C@H](CO)NC(=O)[C@H](CCCCN)NC(=O)[C@@H]2CCCN2C(=O)[C@H]([C@@H](C)CC)NC(=O)[C@H]([C@@H](C)O)NC(=O)[C@H](CC(=O)O)NC1=O`, the IC50 amounted to 0.191 nM in experiment [1], 0.357 nM in experiment [2] and 0.475 nM in experiment [3].

With `CC[C@H](C)[C@@H]1NC(=O)[C@@H](NC(=O)[C@H](CO)NC(=O)[C@@H](N)CCCCN)CSSC[C@@H](C(=O)O)NC(=O)[C@H]([C@@H](C)O)NC(=O)CNC(=O)[C@@H]2CSSC[C@@H]3NC(=O)[C@H](CCC(N)=O)NC(=O)[C@H](Cc4ccccc4)NC(=O)[C@H](C)NC(=O)[C@H]([C@@H](C)O)NC(=O)[C@H](CSSC[C@H](NC(=O)[C@H](Cc4ccccc4)NC(=O)[C@H](CO)NC(=O)[C@H](CC(C)C)NC(=O)[C@H](CCCNC(=N)N)NC(=O)[C@H](Cc4ccc(O)cc4)NC(=O)[C@H](CCCCN)NC(=O)[C@H](CCSC)NC(=O)[C@H](CO)NC(=O)[C@H](Cc4cnc[nH]4)NC(=O)[C@H](CCCCN)NC3=O)C(=O)N[C@@H](CCCNC(=N)N)C(=O)N[C@@H](CCCCN)C(=O)N[C@@H]([C@@H](C)O)C(=O)N2)NC(=O)[C@H](CCCNC(=N)N)NC(=O)[C@H](CO)NC(=O)[C@H](CCCCN)NC(=O)[C@@H]2CCCN2C(=O)[C@H]([C@@H](C)CC)NC(=O)[C@H]([C@@H](C)O)NC(=O)[C@H](CC(=O)O)NC1=O`, the IC50 in experiment [1] was found to be 0.154 nM; in experiment [2], 0.036 nM; in experiment [3], 0.073 nM.

For `CC[C@H](C)[C@@H]1NC(=O)[C@@H](NC(=O)[C@H](CO)NC(=O)[C@@H](N)CCCNC(=N)N)CSSC[C@@H](C(=O)O)NC(=O)[C@H]([C@@H](C)O)NC(=O)CNC(=O)[C@@H]2CSSC[C@@H]3NC(=O)[C@H](CCC(N)=O)NC(=O)[C@H](Cc4ccccc4)NC(=O)[C@H](C)NC(=O)[C@H]([C@@H](C)O)NC(=O)[C@H](CSSC[C@H](NC(=O)[C@H](Cc4ccccc4)NC(=O)[C@H](CO)NC(=O)[C@H](CC(C)C)NC(=O)[C@H](CCCNC(=N)N)NC(=O)[C@H](Cc4ccc(O)cc4)NC(=O)[C@H](CCCCN)NC(=O)[C@H](CCSC)NC(=O)[C@H](CO)NC(=O)[C@H](Cc4cnc[nH]4)NC(=O)[C@H](CCCCN)NC3=O)C(=O)N[C@@H](CCCNC(=N)N)C(=O)N[C@@H](CCCCN)C(=O)N[C@@H]([C@@H](C)O)C(=O)N2)NC(=O)[C@H](CCCNC(=N)N)NC(=O)[C@H](CO)NC(=O)[C@H](CCCCN)NC(=O)[C@@H]2CCCN2C(=O)[C@H]([C@@H](C)CC)NC(=O)[C@H]([C@@H](C)O)NC(=O)[C@H](CCCCN)NC1=O`, the IC50 in experiment [1] was more than 3.33 nM; in experiment [2] it was more than 100 nM; in experiment [3] it was more than 100 nM.

As for `CC[C@H](C)[C@@H]1NC(=O)[C@@H](NC(=O)[C@H](CO)NC(=O)[C@@H](N)CCCNC(=N)N)CSSC[C@@H](C(=O)O)NC(=O)[C@H]([C@@H](C)O)NC(=O)CNC(=O)[C@@H]2CSSC[C@@H]3NC(=O)[C@H](CCC(N)=O)NC(=O)[C@H](Cc4ccccc4)NC(=O)[C@H](C)NC(=O)[C@H]([C@@H](C)O)NC(=O)[C@H](CSSC[C@H](NC(=O)[C@H](Cc4ccccc4)NC(=O)[C@H](CO)NC(=O)[C@H](CC(C)C)NC(=O)[C@H](CCCNC(=N)N)NC(=O)[C@H](Cc4ccc(O)cc4)NC(=O)[C@H](CCCCN)NC(=O)[C@H](CCSC)NC(=O)[C@H](CO)NC(=O)[C@H](Cc4c[nH]cn4)NC(=O)[C@H](CCCCN)NC3=O)C(=O)N[C@@H](CCCNC(=N)N)C(=O)N[C@@H](CCCCN)C(=O)N[C@@H]([C@@H](C)O)C(=O)N2)NC(=O)[C@H](CCCNC(=N)N)NC(=O)[C@H](CO)NC(=O)[C@H](CCCCN)NC(=O)[C@@H]2CCCN2C(=O)[C@H]([C@@H](C)CC)NC(=O)[C@H](CCCCN)NC(=O)[C@H](CC(=O)O)NC1=O`, the IC50 in experiment [1] is 0.129 nM; in experiment [2], 0.117 nM; in experiment [3] it was 0.21 nM.
